According to paper PMC7607171, “Optimized low‐dose combinatorial drug treatment boosts selectivity and efficacy of colorectal carcinoma treatment” (Molecular Oncology, 2020):
“And” between values parts separate entries of the source, which are not always exact repeats. Identical values can stand only once. Like-named read-outs stand apart in the source and are kept apart here.

How the values were obtained:
[1] = 0-24h, oral, cited from earlier work
[2] = Clinical plasma pharmacokinetics in patients, plasma concentration limit calculation; assay type: in vivo; details: average plasma concentration calculated from AUC0-24h in patients
Description: To select for clinically relevant doses, the clinically attainable drug concentration measured in the blood plasma of patients after treatment is used to calculate the concentration limit for in vitro experiments. […] The average drug concentration is calculated from the AUC0–24h and is implemented as the plasma concentration limit (PCL) which drug dose selection must remain below for in vitro experiments. If a drug is FDA approved, the AUC0–24h selected is the one corresponding to the recommended dose in clinical practice. If a drug is in clinical trials, the AUC0–24h selected is the one corresponding to the maximum tolerated dose in early stage clinical trials. Note, experiments were conducted with the most current PCL calculated from the AUC0–24h information available at the start of experiments (December 2017), see Table S4.

[3] = tested on: SW620 tumors; test: Subcutaneous xenograft tumor growth; assay type: in vivo, Swiss nu/nu mice
Description: All procedures including animal use were performed in accordance with the Institutional Ethical Committee of Animal Care in Geneva and the Swiss Cantonal Veterinary Office (Authorization number GE‐136‐19). Briefly, female and male Swiss nu/nu mice aged 6–8 weeks were obtained from Charles River (Écully, France). For subcutaneous xenografts mice were inoculated in the left flank with 5x10^6 DLD1 or SW620 cells suspended in 100 µL of cell culture medium, supplemented with 1% FBS. Treatment was initiated when palpable tumors had formed (approximately 30 mm^3) on day 4 for DLD1 and day 5 for the SW620 model.
Treatment was initiated once tumor growth was confirmed with bioluminescence measurements. Drugs were administered through oral gavage based on average body weight of the males (100 µL/mouse) and females (80 µL/mouse) at various concentrations, see Tables S10 and S11.
Solution A: step (1) 30% PEG 400 + 5% propylene glycol + 0.5% Tween 80 and (2) 64.5% sterile H2O. Solution B: step (1) 10% DMSO, (2) 30% PEG 300 + 5% Tween 80 and (3) 55% sterile H2O. Vemurafenib was prepared 2x concentrated (half or three/sixth of total solution), and the remaining drugs were prepared 6x concentrated (one/sixth of total solution), after which drugs were diluted to prepare 1x drug concentrations for the ODC or single drugs using the other drugs or complete solvent solutions without drugs for lower concentrations. FOLFOX was administered as 6 mg/kg oxaliplatin two hours before administration of 90 mg/kg leucovorin and 50 mg/kg (DLD1) or 25 mg/kg (SW620) 5‐fluorouracil at day 1 and a repeat of 5‐fluorouracil dosing on day 2.
The Bliss independence model can be used to evaluate the drug interaction potential of a drug mixture. The model is based on the principle that each drug has an independent drug mechanism of action, but all contribute to a common result (e.g., cell death or tumor volume inhibition). The model is based on the probability theory and requires the drug activity of each drug at the selected dose to predict the inhibition rate (IR) at additive doses. For in vivo tumor volume results, we predicted the IR based on the fraction of tumor volume remaining after single‐drug treatment of each of the drugs vs 100% CTRL (F1,2,3,4), using the following formula: IR = […].

[4] = Serum and intratumor drug concentration at experimental endpoint, SW620 model; assay type: in vivo, mice; details: for concentration at 1 h / Kp at 1 h: Swiss Nu/nu, mouse, oral; for concentration at 1 h: 1h post-treatment at endpoint (day 19); for Kp at 1 h: tumor vs serum, read-out: ratio tumor vs serum; for Kp at 1 h / ratio ODC vs single drug: SW620 model
Description: At the experimental endpoint, plasma and tumors were collected 1h post‐treatment and part of the tumor tissue was used to determine the intratumor drug concentrations. Plasma and tumor samples were analyzed using the same LC‐MS/MS method used for drug determination in DBS. Before analysis, tumor tissues were homogenized in a 1 mL mixture of water/acetonitrile (30/70). Hundred uL of homogenates were transferred into new tubes and 50 µL of acetonitrile, as well as 50 µL of a mix of internal standards in MeOH were added. Tubes were vortexed and centrifuged for 10 min at 9,000 rpm. The supernatant (100 µL) was evaporated under nitrogen and reconstituted in 100 µL of acetonitrile with 0.1% formic acid/water with 0.1% formic acid (30/70). 10 µL was then injected into the LC‐MS/MS system. Plasma samples were spotted onto the same paper used for whole blood analysis and were extracted and analyzed using the same methods as used for DBS.

[5] = Pharmacokinetics, dried blood spot LC-MS/MS, mice with SW620 tumors; assay type: in vivo; details: for Tmax / AUC(0-t) / Cmax: Swiss Nu/nu, mouse, whole blood (dried blood spot), po, 10 mg/kg, regorafenib 30, vemurafenib 75, GDC-0994 10 mg/kg; for AUC(0-t) / Cmax: whole blood, mean ± SD; for AUC(0-t): oral, read-out: AUC0-24h
Description: The pharmacokinetic (PK) study was performed using the dried blood spot method. Mice were treated with CTRL, ODCs, and corresponding monotherapies as described above. To determine the disposition in blood in the first 24h, blood samples (5 µL/mouse) were collected from the tail vein (n = 4 mice) at 2h, 4h, 8h, and 24h time points and transferred onto paper (a filter paper 903 protein saver card from Whatman (MA, USA)). A disk with the entire spot was punched from the paper card and transferred to the HPLC vial tube. Hundred µL of MeOH containing a mix of internal standards was added, and the tube was vortex‐mixed for about 1 min before injecting 10 µL into the LC‐MS/MS system. The LC‐MS/MS system consisted of an API 4,000 triple quadrupole mass spectrometer (AB sciex, Concord, ON, Canada) controlled by analyst 1.6.1 software. The mass spectrometer was operated in the multiple reaction monitoring (MRM) mode with positive electrospray ionization. The instrument was coupled with an Agilent series 1100 (Waldbronn, Germany) LC system. Chromatography was performed on a Phenomenex Kinetex C18 analytical column (50 mm x 2.1 mm, 2.6 um; Torrance, CA, USA). The flow rate was 0.5 mL/min using gradient elution conditions. The method was fully validated before application to this pharmacokinetic study.

[6] = GDC-0994 10 mg/kg, Exp 6, Day 20
[7] = GDC-0994 10 mg/kg, Exp 8, Day 19
[8] = GDC-0994 20 mg/kg, Exp 4, Day 22
[9] = given as part of SW620-specific ODC

Cn1c(=O)n(-c2ccc(C(C)(C)C#N)cc2)c2c3cc(-c4cnc5ccccc5c4)ccc3ncc21 [BEZ-235]
AUC ([1]; 400 mg/kg once daily, ref 16): 741.3 ng·h/mL | AUC ([1]; 400 mg/kg once daily, ref 17): 1404.4 ng·h/mL

Cn1nccc1Nc1nccc(-c2ccn([C@H](CO)c3ccc(Cl)c(F)c3)c(=O)c2)n1 [GDC-0994, (S)-1-(1-(4-Chloro-3-fluorophenyl)-2-hydroxyethyl)-4-(2-((1-methyl-1H-pyrazol-5-yl)amino)pyrimidin-4-yl)pyridin-2(1H)-one]
PCL (plasma concentration limit) [2]: 2.02 µM and 2.0 µM | % CTRL (tumor volume) [3, 6]: 56 33 15 % CTRL | Volume [3, 6]: 290 170 76 mm^3 | % CTRL (tumor volume) [3, 7]: 56 18 7 % CTRL | Volume [3, 7]: 354 114 46 mm^3 | % CTRL (tumor volume) [3, 8]: 62 31 22 % CTRL | Volume [3, 8]: 301 148 105 mm^3 | concentration at 1 h ([4]; serum, 10 mg/kg, as part of ODC, regorafenib 30, selumetinib 0.2, vemurafenib 75, GDC-0994 10 mg/kg, read-out: concentration serum): 19400 ± 9390 ng/mL | concentration at 1 h ([4]; serum, 10 mg/kg, single drug, regorafenib 30, selumetinib 0.2, vemurafenib 75, GDC-0994 10 mg/kg, read-out: concentration serum): 15900 ± 9070 ng/mL | concentration at 1 h ([4]; tumor (SW620), as part of ODC, SW620 tumor, doses as E164, read-out: concentration tumor): 5560 ± 3000 ng/g | concentration at 1 h ([4]; tumor (SW620), single drug, SW620 tumor, doses as E164, read-out: concentration tumor): 12700 ± 2870 ng/g | Kp at 1 h ([4]; as part of ODC): 0.29 | Kp at 1 h ([4]; single drug): 0.8 | ratio ODC vs single drug ([4]; serum): 1.22 | ratio ODC vs single drug ([4]; tumor): 0.44 | Tmax [5, 9]: 2 h | AUC(0-t) [5, 9]: 45000 ± 9090 ng·h/mL | Cmax [5, 9]: 6610 ± 1110 ng/mL | Tmax ([5]; mono): 2 h | AUC(0-t) ([5]; mono): 31600 ± 4740 ng·h/mL | Cmax ([5]; mono): 6090 ± 1930 ng/mL | increase of AUC as part of the ODC vs single-drug treatment ([5]; mice bearing SW620 tumors, AUC0-24h): 1.4 x

CC1(COc2ccc3c(c2)ncn3-c2ccc3cccc(N4CCC(N)CC4)c3n2)COC1 [crenolanib]
PCL (plasma concentration limit) [2]: 0.43 µM and 0.4 µM | AUC ([1]; 100 mg/kg twice daily): 3200 ng·h/mL | AUC ([1]; 200 mg/kg once daily): 4610 ng·h/mL

Clc1ccc(Nc2nnc(Cc3ccncc3)c3ccccc23)cc1 [vatalanib]
PCL (plasma concentration limit) [2]: 8.31 µM and 8.3 µM | AUC ([1]; 1,000 mg/kg once daily): 52900 ng·h/mL | AUC ([1]; 1,200 mg/kg once daily): 69200 ng·h/mL

O=C(CCCCCCC(=O)Nc1ccccc1)NO [vorinostat]
PCL (plasma concentration limit) [2]: 0.19 µM and 0.2 µM | AUC ([1]; 200 mg/kg twice daily): 4.61 µM·h
